Results reported in article PMC10033419, “Blocking NS3–NS4B interaction inhibits dengue virus in non-human primates” (Nature, 2023).
In brackets after ≈: the same amount, converted by molar mass. Read-outs that look alike come from different tables or passages of the source.

System: DENV-2 RL
Assay: microbe, parasite or virus in culture
Format: cell-based
Conditions: Dengue virus, DENV2, Vero

`COc1cc(N[C@H](C(=O)c2c[nH]c3ccc(OC(F)(F)F)cc23)c2ccc(Cl)cc2OC)cc(S(C)(=O)=O)c1` [JNJ-1802] gave an EC50 (read-out: EC50 values [Well 1], A sample, passage 32) of 100 ng/mL (≈ 172 nM), an EC50 (read-out: EC50 values [Well 1], A sample, passage 33) of 200 ng/mL (≈ 343 nM) and an EC50 (read-out: EC50 values [Well 1], A sample, passage 34) of 200 ng/mL (≈ 343 nM). The EC50 (read-out: EC50 values [Well 1], A sample, passage 35) was 200 ng/mL (≈ 343 nM), the EC50 (read-out: EC50 values [Well 1], A sample, passage 36) was 200 ng/mL (≈ 343 nM) and the EC50 (read-out: EC50 values [Well 1], A sample, passage 37) was 400 ng/mL (≈ 686 nM). It also gave an EC50 (read-out: EC50 values [Well 1], A sample, passage 38) of 400 ng/mL (≈ 686 nM), an EC50 (read-out: EC50 values [Well 1], A sample, passage 39) of 1000 ng/mL (≈ 1720 nM) and an EC50 (read-out: EC50 values [Well 1], A sample, passage 40) of 1000 ng/mL (≈ 1720 nM). It also gave an EC50 (read-out: EC50 values [Well 1], A sample, passage 41) of 1000 ng/mL (≈ 1720 nM), an EC50 (read-out: EC50 values [Well 1], A sample, passage 42 (END)) of 1000 ng/mL (≈ 1720 nM) and an EC50 (read-out: EC50 values [Well 1], B sample, passage 1) of 0.049 ng/mL (≈ 0.0841 nM). The EC50 (read-out: EC50 values [Well 1], B sample, passage 2) was 0.049 ng/mL (≈ 0.0841 nM), the EC50 (read-out: EC50 values [Well 1], B sample, passage 3) was 0.049 ng/mL (≈ 0.0841 nM) and the EC50 (read-out: EC50 values [Well 1], B sample, passage 4) was 0.049 ng/mL (≈ 0.0841 nM). It also gave an EC50 (read-out: EC50 values [Well 1], B sample, passage 5) of 0.049 ng/mL (≈ 0.0841 nM), an EC50 (read-out: EC50 values [Well 1], B sample, passage 11) of 0.195 ng/mL (≈ 0.334 nM) and an EC50 (read-out: EC50 values [Well 1], B sample, passage 12) of 0.195 ng/mL (≈ 0.334 nM). For the same compound, the EC50 (read-out: EC50 values [Well 1], B sample, passage 13) was 0.391 ng/mL (≈ 0.671 nM), the EC50 (read-out: EC50 values [Well 1], B sample, passage 16) was 0.195 ng/mL (≈ 0.334 nM) and the EC50 (read-out: EC50 values [Well 1], B sample, passage 17) was 0.195 ng/mL (≈ 0.334 nM). The EC50 (read-out: EC50 values [Well 1], B sample, passage 18) was 0.195 ng/mL (≈ 0.335 nM), the EC50 (read-out: EC50 values [Well 1], B sample, passage 19) was 0.391 ng/mL (≈ 0.67 nM) and the EC50 (read-out: EC50 values [Well 1], B sample, passage 20) was 0.391 ng/mL (≈ 0.67 nM). The EC50 (read-out: EC50 values [Well 1], B sample, passage 21) was 0.391 ng/mL (≈ 0.67 nM), the EC50 (read-out: EC50 values [Well 1], B sample, passage 22) was 0.391 ng/mL (≈ 0.67 nM) and the EC50 (read-out: EC50 values [Well 1], B sample, passage 24) was 1.56 ng/mL (≈ 2.68 nM). The EC50 (read-out: EC50 values [Well 1], B sample, passage 25) was 3.13 ng/mL (≈ 5.37 nM), the EC50 (read-out: EC50 values [Well 1], B sample, passage 26) was 6.25 ng/mL (≈ 10.7 nM) and the EC50 (read-out: EC50 values [Well 1], B sample, passage 27) was 6.25 ng/mL (≈ 10.7 nM). For the same compound, the EC50 (read-out: EC50 values [Well 1], B sample, passage 28) was 6.25 ng/mL (≈ 10.7 nM), the EC50 (read-out: EC50 values [Well 1], B sample, passage 29) was 25 ng/mL (≈ 42.9 nM) and the EC50 (read-out: EC50 values [Well 1], B sample, passage 30) was 25 ng/mL (≈ 42.9 nM). The EC50 (read-out: EC50 values [Well 1], B sample, passage 31) was 31.3 ng/mL (≈ 53.7 nM), the EC50 (read-out: EC50 values [Well 1], B sample, passage 32) was 31.3 ng/mL (≈ 53.7 nM) and the EC50 (read-out: EC50 values [Well 1], B sample, passage 33) was 62.5 ng/mL (≈ 107 nM). The EC50 (read-out: EC50 values [Well 1], B sample, passage 34) was 62.5 ng/mL (≈ 107 nM), the EC50 (read-out: EC50 values [Well 1], B sample, passage 35) was 62.5 ng/mL (≈ 107 nM) and the EC50 (read-out: EC50 values [Well 1], B sample, passage 36) was 62.5 ng/mL (≈ 107 nM). For the same compound, the EC50 (read-out: EC50 values [Well 1], B sample, passage 37) was 62.5 ng/mL (≈ 107 nM), the EC50 (read-out: EC50 values [Well 1], B sample, passage 38) was 62.5 ng/mL (≈ 107 nM) and the EC50 (read-out: EC50 values [Well 1], B sample, passage 39) was 125 ng/mL (≈ 214 nM). For the same compound, the EC50 (read-out: EC50 values [Well 1], B sample, passage 40) was 250 ng/mL (≈ 429 nM), the EC50 (read-out: EC50 values [Well 1], B sample, passage 41) was 500 ng/mL (≈ 858 nM) and the EC50 (read-out: EC50 values [Well 1], B sample, passage 42) was 500 ng/mL (≈ 858 nM). The EC50 (read-out: EC50 values [Well 1], B sample, passage 43) was 500 ng/mL (≈ 858 nM), the EC50 (read-out: EC50 values [Well 1], B sample, passage 44) was 500 ng/mL (≈ 858 nM) and the EC50 (read-out: EC50 values [Well 1], B sample, passage 45) was 500 ng/mL (≈ 858 nM). It also gave an EC50 (read-out: EC50 values [Well 1], B sample, passage 46) of 500 ng/mL (≈ 858 nM), an EC50 (read-out: EC50 values [Well 1], B sample, passage 47) of 500 ng/mL (≈ 858 nM) and an EC50 (read-out: EC50 values [Well 1], B sample, passage 48) of 1000 ng/mL (≈ 1720 nM). It also gave an EC50 (read-out: EC50 values [Well 1], B sample, passage 49) of 1000 ng/mL (≈ 1720 nM), an EC50 (read-out: EC50 values [Well 1], B sample, passage 50 (END)) of 1000 ng/mL (≈ 1720 nM) and an EC50 (read-out: EC50 values [Well 2], A sample, passage 1) of 0.024 ng/mL (≈ 0.0412 nM). The EC50 (read-out: EC50 values [Well 2], A sample, passage 2) was 0.024 ng/mL (≈ 0.0412 nM), the EC50 (read-out: EC50 values [Well 2], A sample, passage 3) was 0.024 ng/mL (≈ 0.0412 nM) and the EC50 (read-out: EC50 values [Well 2], A sample, passage 4) was 0.024 ng/mL (≈ 0.0412 nM). For the same compound, the EC50 (read-out: EC50 values [Well 2], A sample, passage 5) was 0.024 ng/mL (≈ 0.0412 nM), the EC50 (read-out: EC50 values [Well 2], A sample, passage 6) was 0.049 ng/mL (≈ 0.0841 nM) and the EC50 (read-out: EC50 values [Well 2], A sample, passage 7) was 0.024 ng/mL (≈ 0.0412 nM). For the same compound, the EC50 (read-out: EC50 values [Well 2], A sample, passage 8) was 0.024 ng/mL (≈ 0.0412 nM), the EC50 (read-out: EC50 values [Well 2], A sample, passage 9) was 0.049 ng/mL (≈ 0.0841 nM) and the EC50 (read-out: EC50 values [Well 2], A sample, passage 13) was 0.195 ng/mL (≈ 0.334 nM). The EC50 (read-out: EC50 values [Well 2], A sample, passage 14) was 0.391 ng/mL (≈ 0.671 nM), the EC50 (read-out: EC50 values [Well 2], A sample, passage 15) was 0.391 ng/mL (≈ 0.671 nM) and the EC50 (read-out: EC50 values [Well 2], A sample, passage 17) was 1.56 ng/mL (≈ 2.68 nM).
